# Patent publication US5508039A (priority 1994, dated 1996)
# Columns and labels:
# [1] = test system: intraocular pressure in glaucoma; settings: cited from earlier work
# insomniacs = settings: oral; cited from earlier work
# [2] = human, in vivo; cited from earlier work
# mice = settings: cited from earlier work
# breast cancer = settings: cited from earlier work
# [3] = assay type: in vivo, human
# Protocol: (§1) Therapeutic blood levels from 20 pg/ml to 1,000 pg/ml can be obtained from administration rates in the range of […]. […] Therapeutic blood levels can be achieved within approximately 2 hours, and peak blood concentrations are achieved at about 4-6 hours when the system is worn for 4-6 hours. […] The system application is easily adapted for shorter or longer duration treatments, but generally 6 hours is the nominal duration for treatment of most insomnias.
# clinical = assay type: in vivo, human
# Protocol: as §1
# [4] = general statement; cited from earlier work
# [5] = cited from earlier work
# [6] = test system: desynchronized blind persons; settings: oral; cited from earlier work
# [7] = human, in vivo, topical or ocular
compound,measurement,setting,value
"COc1ccc2[nH]cc(CCNC(C)=O)c2c1 [melatonin, N-acetyl-5-methoxytryptamine]",intraocular pressure,[1],lower intraocular pressure in glaucoma
same,"mood, drive, alertness, and reaction time the next day",insomniacs,improved
same,"time awake before sleep onset, sleep latency and number of awakenings",insomniacs,reduced the time awake before sleep onset and diminished sleep latency and number of awakenings
same,metabolic clearance,[2],approximately 1 liter per minute
same,terminal plasma elimination half-life,[2],approximately 45 minutes
same,volume of distribution,[2],approximately 40 liters
same,LD50 intraperitoneal,mice; intraperitoneal,1375 mg/kg
same,LD50 intravenous,mice; intravenous,180 mg/kg
same,inhibition of breast cancer,breast cancer,inhibit breast cancer
same,skin flux through living human skin,[3],0.05-10 mg/cm^2 /hr
same,desired and achievable system flux through the skin from a limited area,clinical,"0,025-1.0"
same,Tmax,clinical; [7],4 to 6 h
same,half-life,clinical; [7],1 to 2 h
same,time to achieve therapeutic blood levels,clinical; in vivo,≤ 2 h
same,toxicity,[4],relatively non-toxic
same,absorption through the gastrointestinal tract,"[5]; in vivo, po",readily absorbed
same,inactivation by liver of absorbed melatonin on first-pass,[5]; oral,≤ 99%
same,timing of sleep cycles,[6],Improved timing of sleep cycles
